The SangsterLogP compilation

Row | logP | SMILES
1 | 9.16 | CCCCCCCCCC(CCCC)c1ccccc1 (stereo not drawn)
2 | 8.65 | CCCCCCCCCCC(CC)c1ccccc1 (stereo not drawn)
3 | 8.1 | CCCCCCCCCC(CC)c1ccccc1 (stereo not drawn)
4 | 8.65 | CCCCCCCCCCCCc1ccccc1
5 | 9.29 | CCCCCCCCCCCC(CC)c1ccccc1 (stereo not drawn)
6 | 8.07 | CCCCCCCCC(CCC)c1ccccc1 (stereo not drawn)
7 | 9.25 | CCCCCCCCCCC(CCC)c1ccccc1 (stereo not drawn)
8 | 9.36 | CCCCCCCCCCCCCc1ccccc1
9 | 7.53 | CCCCCCCCC(CC)c1ccccc1 (stereo not drawn)
10 | 8.56 | CCCCCCCCC(CCCC)c1ccccc1 (stereo not drawn)
11 | 9.95 | CCCCCCCCCCCCCCc1ccccc1
12 | 8.62 | CCCCCCCCCC(CCC)c1ccccc1 (stereo not drawn)
13 | 9.16 | CCCCCCCCC(CCCCC)c1ccccc1 (stereo not drawn)
14 | 8.14 | CCCCCCCCCCCc1ccccc1
15 | 9.29 | CCCCCCCCCCCCC(C)c1ccccc1 (stereo not drawn)

Further lines, the molecule ahead of its results:

Row | SMILES | logP
16 | CCCCCCC(CCC)c1ccccc1 (stereo not drawn) | 7
17 | CCCCCCCC(CC)c1ccccc1 (stereo not drawn) | 7
18 | CCCCCCCC(CCCC)c1ccccc1 (stereo not drawn) | 8.01
19 | CCCCCCCCCC(C)c1ccccc1 (stereo not drawn) | 7.63
20 | CCCCCCCCCCCC(C)c1ccccc1 (stereo not drawn) | 8.77
21 | CCCCCCC(CCCCC)c1ccccc1 (stereo not drawn) | 8.01
22 | CCCCCCC(CCCC)c1ccccc1 (stereo not drawn) | 7.45
23 | CCCCCC(CCCC)c1ccccc1 (stereo not drawn) | 6.9
24 | CCCCCCCC(CCC)c1ccccc1 (stereo not drawn) | 7.59
25 | CCCCCCCCC(C)c1ccccc1 (stereo not drawn) | 7.06
26 | CCCCCCCCCCC(C)c1ccccc1 (stereo not drawn) | 8.19
27 | CCCCCCCC(CCCCC)c1ccccc1 (stereo not drawn) | 8.56
28 | CCCCCC(CCCCC)c1ccccc1 | 7.45
